Experimental findings from US8575309B2, “Delta-opioid receptor selective analgesics” (Biousian Biosystems, Inc., priority 2008, dated 2013) are described below.

pEC50, pIC50, pKi: −log10 of the molar value. Like-named read-outs stand apart in the source and are kept apart here. Non-standard residues stand in square brackets, D forms with d. Residues, ends and D or L forms follow the SMILES beside them. *: point of attachment. βGlc = OC[C@H]1O[C@@H](*)[C@H](O)[C@@H](O)[C@@H]1O; Nle = CCCC[C@H](N)C(=O)O; Nva = CCC[C@H](N)C(=O)O

Assay [1] addresses T1, human delta opioid receptor (hDOR) (Homo sapiens, UniProt P41143).
T1 construct: expressed in transfected cells; membranes
Briefly: Radioligand competition binding, [3H]naltrindole, hDOR CHO cell membranes. Particulars: for rank order of affinity for the delta receptor: peptides at 100 nM and 1 nM vs. 0.2 nM [3H]Naltrindole, 20 ug hDOR CHO cell membranes (FIGS. 1 and 2). (In general: In a radioligand displacement assay an active substance lowers the binding of a labelled ligand.)

The target in assay [2] is T2, hDOR (Homo sapiens, UniProt P41143).
T2 construct: expressed in transfected cells; membranes
T2 sequence (P41143 whole entry): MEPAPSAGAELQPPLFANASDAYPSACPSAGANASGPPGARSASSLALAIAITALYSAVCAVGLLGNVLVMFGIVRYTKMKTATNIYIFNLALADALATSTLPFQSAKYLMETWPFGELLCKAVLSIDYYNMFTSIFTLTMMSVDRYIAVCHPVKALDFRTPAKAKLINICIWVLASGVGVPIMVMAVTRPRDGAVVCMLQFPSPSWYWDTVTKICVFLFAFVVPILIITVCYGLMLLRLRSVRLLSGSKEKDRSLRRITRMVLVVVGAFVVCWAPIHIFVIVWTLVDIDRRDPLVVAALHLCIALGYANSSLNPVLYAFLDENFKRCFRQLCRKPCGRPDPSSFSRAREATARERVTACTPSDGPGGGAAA
Kind of assay: [35S]GTPγS binding assay, hDOR CHO cell membranes. It is filed as biochemical. Particulars: for Antagonist Properties Imax (%) Delta Mean: cell wraps over r13-r15: No Inhibition; for Description: Delta: functional classification; for Emax: read-out: Agonist Properties EMax (%) Delta Mean. How it is done:
(§1) GTPγS binding assay to determine if the peptide is an agonist, antagonist, or partial agonist at the DOR. Membranes from the CHO cell lines, expressing either the MOR, DOR or KOR, will be incubated with 12 concentrations of each peptide for 60 min at 30° C. in a final volume of 0.5 mL of assay buffer (50 mM Tris-HCl, 3 mM MgCl2, 0.2 mM EGTA, 100 mM NaCl, pH 7.5) containing 3 μM GDP and 0.08 nM [^35S] GTPγS. Basal binding is determined in the presence of GDP and the absence of opioids, and nonspecific binding is determined by including 10 μM unlabeled […] GTPγS. The incubation is terminated by filtration under vacuum through glass fiber filters, followed by three washes with 3-ml ice-cold 50 mM Tris-HCl, pH 7.5. Samples are allowed to equilibrate overnight and are counted in 2 ml of Ecoscint A scintillation fluid for 2 min in a liquid scintillation counter.
(§2) GTPγS binding assay described in Example 3.
(In general: Binding of GTPγS marks nucleotide exchange on a G protein.)

In assay [3] the target is T3, hMOR (Homo sapiens, UniProt P35372).
T3 construct: expressed in transfected cells; membranes
T3 sequence (P35372 whole entry): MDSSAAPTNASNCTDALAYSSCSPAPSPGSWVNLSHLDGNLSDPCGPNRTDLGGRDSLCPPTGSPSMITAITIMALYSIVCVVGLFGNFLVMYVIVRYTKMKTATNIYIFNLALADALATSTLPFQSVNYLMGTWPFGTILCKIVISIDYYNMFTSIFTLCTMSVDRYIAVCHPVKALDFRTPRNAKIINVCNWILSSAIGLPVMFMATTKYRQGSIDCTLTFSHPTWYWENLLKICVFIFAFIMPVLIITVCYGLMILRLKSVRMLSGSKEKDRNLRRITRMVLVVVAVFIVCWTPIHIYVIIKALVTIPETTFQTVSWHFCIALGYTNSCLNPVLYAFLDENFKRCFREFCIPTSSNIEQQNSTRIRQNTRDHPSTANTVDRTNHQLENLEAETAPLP
Briefly: [35S]GTPγS binding assay, hMOR CHO cell membranes. It is filed as biochemical. The note with it: for Antagonist Properties Imax (%) Mu Mean: cell wraps over r13-r15: No Inhibition; for Description: Mu: functional classification; for Emax: hMOR CHO cell membranes, @ 10 um, read-out: Agonist Properties EMax (%) Mu Mean. As for the experimental part:
as §1, §2

Assay [4] has as its target T4, human mu opioid receptor (hMOR) (Homo sapiens, UniProt P35372).
T4 construct: expressed in transfected cells; membranes
Briefly: Radioligand competition binding, [3H]DAMGO, hMOR CHO cell membranes.

Assay [5] concerns the target T5, human kappa opioid receptor (hKOR) (Homo sapiens, UniProt P41145).
T5 construct: expressed in transfected cells; membranes
Briefly: Radioligand binding, [3H]U69,593, hKOR CHO cell membranes. Particulars: peptide at 10 uM, read-out: Max Inhib at 10 uM (%) Kappa [3H]U69,593 Mean.

Assay [6] has as its system mouse tail flick. Briefly: Mouse tail flick assay, oral availability of formulations. It is filed as in vivo. The note with it: for antinociceptive activity: 32 mg/kg. On the technique in general: In hot-plate and tail-flick tests a longer latency is read as antinociception.

Broadly, the pIC50 is the negative decadic logarithm of the IC50, by convention in mol/L. Read a high pIC50 as a small IC50. As usually defined, the pKi is the Ki on a negative log10 scale, so that one unit is a factor of ten. A high value points to a low Ki. The term pEC50 denotes −log10 of the EC50, conventionally taken in molar units.

T1 sequence (P41143 whole entry): as the sequence (P41143 whole entry) above
T5 sequence (P41145 whole entry): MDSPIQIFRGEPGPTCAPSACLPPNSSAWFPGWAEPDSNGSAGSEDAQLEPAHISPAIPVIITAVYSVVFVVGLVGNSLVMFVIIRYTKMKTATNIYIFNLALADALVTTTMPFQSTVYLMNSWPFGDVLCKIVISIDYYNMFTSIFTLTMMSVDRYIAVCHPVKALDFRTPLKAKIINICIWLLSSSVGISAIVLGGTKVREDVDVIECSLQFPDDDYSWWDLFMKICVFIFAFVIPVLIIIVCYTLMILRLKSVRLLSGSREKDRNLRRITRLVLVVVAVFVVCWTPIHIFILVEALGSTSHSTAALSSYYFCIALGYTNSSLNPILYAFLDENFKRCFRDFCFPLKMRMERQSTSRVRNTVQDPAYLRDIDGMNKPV
T4 sequence (P35372 whole entry): as the sequence (P35372 whole entry) above

As for “H2N-YmFHLMT(beta-D-Glc)-amide (H-Y[dM]FHLMT(βGlc)-NH2; SMILES CSCC[C@H](NC(=O)[C@H](CC(C)C)NC(=O)[C@H](Cc1c[nH]cn1)NC(=O)[C@H](Cc1ccccc1)NC(=O)[C@@H](CCSC)NC(=O)[C@@H](N)Cc1ccc(O)cc1)C(=O)N[C@H](C(N)=O)[C@@H](C)O[C@@H]1O[C@H](CO)[C@@H](O)[C@H](O)[C@H]1O) [Peptide 11003]”, in assay [1], the “rank order of affinity for the delta receptor” value was “[11001≈111003≈11008≈DPDDE]>[11005≈11006≈11007]>[11002≈11004]>Lsz27”.

In the case of “H2N-YaFHLAT(beta-D-Glc)-amide (H-Y[dA]FHLAT(βGlc)-NH2; SMILES CC(C)C[C@H](NC(=O)[C@H](Cc1c[nH]cn1)NC(=O)[C@H](Cc1ccccc1)NC(=O)[C@@H](C)NC(=O)[C@@H](N)Cc1ccc(O)cc1)C(=O)N[C@@H](C)C(=O)N[C@H](C(N)=O)[C@@H](C)O[C@@H]1O[C@H](CO)[C@@H](O)[C@H](O)[C@H]1O) [Peptide 11004]”, the “rank order of affinity for the delta receptor” value in assay [1] was “[11001≈111003≈11008≈DPDDE]>[11005≈11006≈11007]>[11002≈11004]>Lsz27”.

For “H2N-YaFHLAS(beta-D-Glc)-amide (H-Y[dA]FHLAS(βGlc)-NH2; SMILES CC(C)C[C@H](NC(=O)[C@H](Cc1c[nH]cn1)NC(=O)[C@H](Cc1ccccc1)NC(=O)[C@@H](C)NC(=O)[C@@H](N)Cc1ccc(O)cc1)C(=O)N[C@@H](C)C(=O)N[C@@H](CO[C@@H]1O[C@H](CO)[C@@H](O)[C@H](O)[C@H]1O)C(N)=O) [Peptide 11002]”, in assay [1], the “rank order of affinity for the delta receptor” value was “[11001≈111003≈11008≈DPDDE]>[11005≈11006≈11007]>[11002≈11004]>Lsz27”.

For the compound `CCCC[C@H](NC(=O)[C@H](CCC(=O)O)NC(=O)[C@H](Cc1ccccc1)NC(=O)[C@@H](C)NC(=O)[C@@H](N)Cc1ccc(O)cc1)C(=O)N[C@@H](CCCC)C(=O)N[C@H](C(N)=O)[C@@H](C)O` [Peptide 11009, H2N-YaFE-Nle-Nle-T-amide] (H-Y[dA]FE[Nle][Nle]T-NH2), in assay [2], the “Antagonist Properties Imax (%) Delta Mean” value is “No” and the “Description: Delta” value is on record as “Agonist”. Moreover, in assay [2] (hDOR CHO cell membranes, read-out: Agonist Properties EC50 (nM) Delta Mean), the EC50 was found to be 12 nM. Further, the Emax in assay [2] (hDOR CHO cell membranes) came to 67%. In assay [3], the “Antagonist Properties Imax (%) Mu Mean” value is reported as “No”, the “Description: Mu” value is “Very weak agonist” and the Emax is 42%.

With “H2N-YaFE-Nva-Nva-T(beta-D-Glc)-amide (H-Y[dA]FE[Nva][Nva]T(βGlc)-NH2; SMILES CCC[C@H](NC(=O)[C@H](CCC(=O)O)NC(=O)[C@H](Cc1ccccc1)NC(=O)[C@@H](C)NC(=O)[C@@H](N)Cc1ccc(O)cc1)C(=O)N[C@@H](CCC)C(=O)N[C@H](C(N)=O)[C@@H](C)O[C@@H]1O[C@H](CO)[C@@H](O)[C@H](O)[C@H]1O) [Peptide 11007]”, the “rank order of affinity for the delta receptor” value in assay [1] is “[11001≈111003≈11008≈DPDDE]>[11005≈11006≈11007]>[11002≈11004]>Lsz27”.

For the compound `CCC[C@H](NC(=O)[C@H](CCC)NC(=O)[C@H](CCC(=O)O)NC(=O)[C@H](Cc1ccccc1)NC(=O)[C@@H](C)NC(=O)[C@@H](N)Cc1ccc(O)cc1)C(=O)N[C@@H](CO[C@@H]1O[C@H](CO)[C@@H](O)[C@H](O)[C@H]1O)C(N)=O` [Peptide 11005, H2N-YaFE-Nva-Nva-S(beta-D-Glc)-amide] (H-Y[dA]FE[Nva][Nva]S(βGlc)-NH2), in assay [1], the pIC50 was 7.21, the pKi was 7.70 and the “rank order of affinity for the delta receptor” value was “[11001≈111003≈11008≈DPDDE]>[11005≈11006≈11007]>[11002≈11004]>Lsz27”. Further, in assay [4], the negative-log Ki (pKi) is 6.15. The inhibition at 10 µM in assay [5] came to 5.3%.

On to “H2N-YmFHLMS(beta-D-Glc)-amide (H-Y[dM]FHLMS(βGlc)-NH2; SMILES CSCC[C@H](NC(=O)[C@H](CC(C)C)NC(=O)[C@H](Cc1c[nH]cn1)NC(=O)[C@H](Cc1ccccc1)NC(=O)[C@@H](CCSC)NC(=O)[C@@H](N)Cc1ccc(O)cc1)C(=O)N[C@@H](CO[C@@H]1O[C@H](CO)[C@@H](O)[C@H](O)[C@H]1O)C(N)=O) [Peptide 11001]”, for which the “rank order of affinity for the delta receptor” value in assay [1] was “[11001≈111003≈11008≈DPDDE]>[11005≈11006≈11007]>[11002≈11004]>Lsz27”.

“H2N-YaFE-Nle-Nle-S(beta-D-Glc)-amide (H-Y[dA]FE[Nle][Nle]S(βGlc)-NH2; SMILES CCCC[C@H](NC(=O)[C@H](CCCC)NC(=O)[C@H](CCC(=O)O)NC(=O)[C@H](Cc1ccccc1)NC(=O)[C@@H](C)NC(=O)[C@@H](N)Cc1ccc(O)cc1)C(=O)N[C@@H](CO[C@@H]1O[C@H](CO)[C@@H](O)[C@H](O)[C@H]1O)C(N)=O) [Peptide 11006]”: in assay [1], the “rank order of affinity for the delta receptor” value was “[11001≈111003≈11008≈DPDDE]>[11005≈11006≈11007]>[11002≈11004]>Lsz27”.

`CCCC[C@H](NC(=O)[C@H](CCC(=O)O)NC(=O)[C@H](Cc1ccccc1)NC(=O)[C@@H](C)NC(=O)[C@@H](N)Cc1ccc(O)cc1)C(=O)N[C@@H](CCCC)C(=O)N[C@H](C(N)=O)[C@@H](C)O[C@@H]1O[C@H](CO)[C@@H](O)[C@H](O)[C@H]1O` [Peptide 11008, H2N-YaFE-Nle-Nle-T(beta-D-Glc)-amide] (H-Y[dA]FE[Nle][Nle]T(βGlc)-NH2): the “efficacy of oral formulation versus unformulated glycopeptide” value in assay [6] (oral formulation, 3.2 mg/kg) is given as “just slightly lower efficacy than that produced by 32 mg/kg of unformulated glycopeptide 11008”. The same compound gave an antinociceptive activity in assay [6] (oral formulation) of 75%. For the same compound, the antinociceptive activity in assay [6] (saline formulation (unformulated)) was 30%. In assay [1], the pIC50 was 7.38, the pKi was 7.85 and the “rank order of affinity for the delta receptor” value is “[11001≈111003≈11008≈DPDDE]>[11005≈11006≈11007]>[11002≈11004]>Lsz27”. Also, the “lower affinity for delta than DPDPE” value in assay [1] (relative to DPDPE) is given as roughly 3 fold. Also, in assay [4], the pKi was 5.96. Moreover, in assay [2], the pEC50 was 7.92, the “Antagonist Properties Imax (%) Delta Mean” value is on record as “No” and the “Description: Delta” value is reported as “Agonist”. Besides, the Emax in assay [2] (hDOR CHO cell membranes) was found to be 75%. The inhibition at 10 µM in assay [5] was determined as 2.9%. In assay [3], the “Antagonist Properties Imax (%) Mu Mean” value was “No”, the “Description: Mu” value is given as “Very weak agonist” and the Emax was 27%.
